Test results: patent US20260199323A1, “LIGAND COMPOUNDS FOR E3 UBIQUITIN LIGASE, PROTEIN DEGRADERS DEVELOPED ON BASIS OF LIGAND COMPOUNDS, AND USES THEREOF” (GLUETACS THERAPEUTICS (SHANGHAI) CO., LTD., priority 2021, published 2026)
Like-named read-outs stand apart in the source and are kept apart here. One block for each compound: values may come before it.

Legend:
Hep3B2.7-1 = experiment: CCK-8 tumor cell proliferation, Hep3B2.7-1; type: cell-based, Human; settings: for IC50: Homo sapiens
Experimental: (§1) The tumor cells used herein were cultured in a cell culture medium listed in table 4 at 37° C. in an incubator with 5% CO2. Prior to experimentation, all cells used were correctly identified by STR profiling, and tested negative for mycoplasma through routine screenings.
(§2) IC50 values of the compounds of the present disclosure (including the compounds in Tables 1 and 3, and compounds of examples) were measured using the Meilun Cell Counting Kit-8 kit from Dalian Meilun Biotech Co., Ltd. Assay details are as follows: tumor cells were seeded in a 96-well plate at a density listed in Table 5. After 24 h, 100 μL of the inoculated cells were treated with 0.5 μL of the compounds of the present disclosure (including the compounds in Tables 1 and 3, and compounds of examples) at 10 different successively decreasing concentrations (starting at the highest concentration of 10 μM; 5-fold serial dilutions). After the cells were treated with the compounds of the present disclosure for a period of time, the cell viability detection reagent was added to the culture medium for cell viability assessment according to the instructions provided with the CCK-8 kit. […] The growth inhibition of the compounds of the present disclosure on cells was plotted by Prism Graphpad software, and the IC50 values of the compounds of the present disclosure were calculated therefrom.

HCC827 = experiment: CCK-8 tumor cell proliferation, HCC827; type: cell-based, Human; settings: Table 8, designed based on ER inhibitors, 96 h
Experimental: The tumor cells used herein were cultured in a cell culture medium listed in table 4 at 37° C. in an incubator with 5% CO2.
as §2, with “After” for “IC50 values of the compounds of the present disclosure (including the compounds in Tables 1 and 3, and compounds of examples) were measured using the Meilun Cell Counting Kit-8 kit from Dalian Meilun Biotech Co., Ltd. Assay details are as follows: tumor cells were seeded in a 96-well plate at a density listed in Table 5. After”

MM.1S = experiment: CCK-8 tumor cell proliferation, MM.1S; type: cell-based; settings: for IC50: Homo sapiens, MM1.S
Procedure, shortened: (§3)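 Cell viability (CCK-8) after compound exposure; IC50 calculated. Cells seeded, treated after 24 h, maximum dose 10 μM, 5-fold serial dilutions over 10 concentrations.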

CCRF-CEM = experiment: CCK-8 tumor cell proliferation, CCRF-CEM; type: cell-based, Human; design: IC50 for inhibiting the proliferation of tumor cells, CCRF-CEM: scale not given here; settings: for IC50: Homo sapiens, CCRF-CEM
Procedure, shortened: as §3

SU-DHL-6 = experiment: CCK-8 tumor cell proliferation, SU-DHL-6; type: cell-based, Human; settings: 72 h
Experimental: as §1, §2

Kasumi-1 = experiment: CCK-8 tumor cell proliferation, Kasumi-1; type: cell-based, Human; settings: for IC50 for inhibiting the proliferation of tumor cells, Kasumi-1: Table 8, designed based on ER inhibitors, 72 h; for IC50: Homo sapiens, Kasumi-1, read-out: IC50 inhibiting proliferation of tumor cells, Kasumi-1
Procedure, shortened: as §3

T47D = experiment: CCK-8 tumor cell proliferation, T47D; type: cell-based, Human; settings: for IC50: Homo sapiens, T47D
Experimental: as §1, §2

SW620 = experiment: CCK-8 tumor cell proliferation, SW620; type: cell-based, Human; settings: Table 8, designed based on ER inhibitors; 96 h
Procedure, shortened: as §3

MDA-MB-231 = experiment: CCK-8 tumor cell proliferation, MDA-MB-231; type: cell-based, Human; design: IC50 for inhibiting the proliferation of tumor cells, MDA-MB-231: scale not given here; settings: Table 8, designed based on ER inhibitors; 96 h
Procedure, shortened: as §3

Mino = experiment: CCK-8 tumor cell proliferation, Mino; type: cell-based, Human; settings: 72 h
Procedure, shortened: as §3

MM.1R = experiment: CCK-8 tumor cell proliferation, MM.1R; type: cell-based; settings: read-out: IC50 inhibiting proliferation of tumor cells, MM.1R
Procedure, shortened: as §3

Jurkat = experiment: CCK-8 tumor cell proliferation, Jurkat; type: cell-based, Human; settings: Homo sapiens, read-out: IC50 inhibiting proliferation of tumor cells, Jurkat
Procedure, shortened: as §3

[1] = Table 8, designed based on ER inhibitors, 96 h
[2] = Table 8, designed based on ER inhibitors, 72 h
[3] = Table 8, designed based on ER inhibitors
[4] = Table 14, designed based on CDK4/6 inhibitors
[5] = Table 22, NTRK inhibitor based, HEP3B2.7-1, read-out: IC50 inhibiting proliferation of tumor cells, HEP3B2.7-1
[6] = Table 22, NTRK inhibitor based, MM.1S, read-out: IC50 inhibiting proliferation of tumor cells, MM.1S
[7] = Table 22, NTRK inhibitor based, read-out: IC50 inhibiting proliferation of tumor cells, CCRF-CEM
[8] = Table 22, NTRK inhibitor based, read-out: IC50 inhibiting proliferation of tumor cells, T47D

SMILES: CCC(=C(c1ccc(O)cc1)c1ccc(OCCNCc2ccc3c(c2)CN(C2CCC(=O)NC2=O)C3=O)cc1)c1ccc(O)cc1 (centres unmarked) [GT-03214, 3-(5-(((2-(4-(1,2-bis(4-hydroxyphenyl)but-1-en-1-yl)phenoxy)ethyl)amino)methyl)-1-oxoisoindolin-2-yl)piperidine-2,6-dione]
IC50 for inhibiting the proliferation of tumor cells, Hep3B2.7-1 (Hep3B2.7-1; [1]): A+
IC50 for inhibiting the proliferation of tumor cells, HCC827 (HCC827): A+
IC50 for inhibiting the proliferation of tumor cells, MM.1S (MM.1S; [2]): A+
IC50 for inhibiting the proliferation of tumor cells, CCRF-CEM (CCRF-CEM; [1]): A+
IC50 for inhibiting the proliferation of tumor cells, SU-DHL-6 (SU-DHL-6; [3]): A+
IC50 for inhibiting the proliferation of tumor cells, Kasumi-1 (Kasumi-1): A+
IC50 for inhibiting the proliferation of tumor cells, T47D (T47D; [1]): A+
IC50 for inhibiting the proliferation of tumor cells, SW620 (SW620): A+
IC50 for inhibiting the proliferation of tumor cells, MDA-MB-231 (MDA-MB-231): A+

SMILES: CC/C(=C(/c1ccc(O)cc1)c1ccc(OCCN)cc1)c1ccc(O)cc1 [GT-03308, reference compound]
IC50 (Hep3B2.7-1; Table 8, designed based on ER inhibitors, 96 h, read-out: IC50 for inhibiting the proliferation of tumor cells, Hep3B2.7-1): > 10000 nM
IC50 (HCC827; Homo sapiens, HCC827, read-out: IC50 for inhibiting the proliferation of tumor cells, HCC827): > 10000 nM
IC50 (MM.1S; Table 8, designed based on ER inhibitors, 72 h, read-out: IC50 for inhibiting the proliferation of tumor cells, MM.1S): > 10000 nM
IC50 (CCRF-CEM; Table 8, designed based on ER inhibitors, 96 h, read-out: IC50 for inhibiting the proliferation of tumor cells, CCRF-CEM): > 10000 nM
IC50 (T47D; Table 8, designed based on ER inhibitors, 96 h, read-out: IC50 for inhibiting the proliferation of tumor cells, T47D): > 10000 nM

SMILES: CCC(=C(c1ccc(O)cc1)c1ccc(N2CCN(Cc3ccc4c(c3)CN(C3CCC(=O)NC3=O)C4=O)CC2)cc1)c1ccc(O)cc1 (centres unmarked) [GT-03551, 3-(5-((4-(4-(1,2-bis(4-hydroxyphenyl)but-1-en-1-yl)phenyl)piperazin-1-yl)methyl)-1-oxoisoindolin-2-yl)piperidine-2,6-dione]
IC50 for inhibiting the proliferation of tumor cells, HCC827 (HCC827): A+
IC50 for inhibiting the proliferation of tumor cells, MM.1S (MM.1S; [2]): A+
IC50 for inhibiting the proliferation of tumor cells, Mino (Mino; [3]): A+
IC50 for inhibiting the proliferation of tumor cells, CCRF-CEM (CCRF-CEM; [1]): A+
IC50 for inhibiting the proliferation of tumor cells, SU-DHL-6 (SU-DHL-6; [3]): A+
IC50 for inhibiting the proliferation of tumor cells, Kasumi-1 (Kasumi-1): A+
IC50 for inhibiting the proliferation of tumor cells, T47D (T47D; [1]): A+
IC50 for inhibiting the proliferation of tumor cells, SW620 (SW620): A+

SMILES: O=C1CCC(N2Cc3cc(CN4CCN(c5ccc(C(=C(CCCl)c6ccc(O)cc6)c6ccc(O)cc6)cc5)CC4)ccc3C2=O)C(=O)N1 (centres unmarked) [GT-03638, 3-(5-((4-(4-(4-chloro-1,2-bis(4-hydroxyphenyl)but-1-en-1-yl)phenyl)piperazin-1-yl)methyl)-1-oxoisoindolin-2-yl)piperidine-2,6-dione]
IC50 for inhibiting the proliferation of tumor cells, Hep3B2.7-1 (Hep3B2.7-1; [1]): A+
IC50 for inhibiting the proliferation of tumor cells, HCC827 (HCC827): A+
IC50 for inhibiting the proliferation of tumor cells, MM.1S (MM.1S; [2]): A+
IC50 for inhibiting the proliferation of tumor cells, Mino (Mino; [3]): A+
IC50 for inhibiting the proliferation of tumor cells, CCRF-CEM (CCRF-CEM; [1]): A+
IC50 for inhibiting the proliferation of tumor cells, SU-DHL-6 (SU-DHL-6; [3]): A+
IC50 for inhibiting the proliferation of tumor cells, Kasumi-1 (Kasumi-1): A+
IC50 for inhibiting the proliferation of tumor cells, T47D (T47D; [1]): A+
IC50 for inhibiting the proliferation of tumor cells, SW620 (SW620): A+
IC50 for inhibiting the proliferation of tumor cells, MDA-MB-231 (MDA-MB-231): A+

Next, values leading:

IC50 for inhibiting the proliferation of tumor cells, SU-DHL-6 (SU-DHL-6; [4]): A+
SMILES: CN(C)C(=O)c1cc2cnc(Nc3ccc(N4CCC(N(C)Cc5ccc6c(c5)CN(C5CCC(=O)NC5=O)C6=O)CC4)cn3)nc2n1C1CCCC1 (centres unmarked) [GT-03544, 7-cyclopentyl-2-((5-(4-(((2-(2,6-dioxopiperidin-3-yl)-1-oxoisoindolin-5-yl)methyl)(methyl)amino)piperidin-1-yl)pyridin-2-yl)amino)-N,N-dimethyl-7H-pyrrolo[2,3-d]pyrimidine-6-carboxamide]

IC50 for inhibiting the proliferation of tumor cells, Mino (Mino; [4]): A+
IC50 for inhibiting the proliferation of tumor cells, SU-DHL-6 (SU-DHL-6; [4]): A+
SMILES: Cc1nc2c(F)cc(-c3nc(Nc4ccc(N5CCC(N(C)Cc6ccc7c(c6)CN(C6CCC(=O)NC6=O)C7=O)CC5)cn4)ncc3F)cc2n1C(C)C (centres unmarked) [GT-03639, 3-(5-(((1-(6-((5-fluoro-4-(4-fluoro-1-isopropyl-2-methyl-1H-benzo[d]imidazol-6-yl)pyrimidin-2-yl)amino)pyridin-3-yl)piperidin-4-yl)(methyl)amino)methyl)-1-oxoisoindolin-2-yl)piperidine-2,6-dione]

IC50 (Hep3B2.7-1; [5]): < 50 nM
IC50 (MM.1R; Table 22, NTRK inhibitor based): < 50 nM
IC50 (MM.1S; [6]): 50 to 100 nM
IC50 (CCRF-CEM; [7]): < 50 nM
IC50 (Kasumi-1; Table 22, NTRK inhibitor based): < 50 nM
IC50 (T47D; [8]): 100 to 500 nM
IC50 (Jurkat; Table 22, NTRK inhibitor based): < 50 nM
SMILES: O=C1CCC(N2Cc3cc(CN4CCN(c5cccc(-c6cnc7ccc(N8CCC[C@@H]8c8cccc(F)c8)nn67)n5)CC4)cc(F)c3C2=O)C(=O)N1 (stereo partly drawn) [GT-03867, 3-(7-fluoro-5-((4-(6-(6-((R)-2-(3-fluorophenyl)pyrrolidin-1-yl)imidazo[1,2-b]pyridazin-3-yl)pyridin-2-yl)piperazin-1-yl)methyl)-1-oxoisoindolin-2-yl)piperidine-2,6-dione]

IC50 (Hep3B2.7-1; [5]): < 50 nM
IC50 (MM.1R; Table 22, NTRK inhibitor based): < 50 nM
IC50 (MM.1S; [6]): < 50 nM
IC50 (CCRF-CEM; [7]): < 50 nM
IC50 (Kasumi-1; Table 22, NTRK inhibitor based): < 50 nM
IC50 (T47D; [8]): < 50 nM
IC50 (Jurkat; Table 22, NTRK inhibitor based): < 50 nM
SMILES: O=C1CCC(N2Cc3cc(CN4CCN(c5cccc(-c6cnn7ccc(N8CCC[C@@H]8c8cc(F)ccc8F)nc67)n5)CC4)c(F)cc3C2=O)C(=O)N1 (stereo partly drawn) [GT-04264, 3-(5-((4-(6-(5-((R)-2-(2,5-difluorophenyl)pyrrolidin-1-yl)pyrazolo[1,5-a]pyrimidin-3-yl)pyridin-2-yl)piperazin-1-yl)methyl)-6-fluoro-1-oxoisoindolin-2-yl)piperidine-2,6-dione]

IC50 (Hep3B2.7-1; Table 22, HEP3B2.7-1, given as number, read-out: IC50 inhibiting proliferation of tumor cells, HEP3B2.7-1): > 10000 nM
IC50 (MM.1R; Table 22, given as number): > 10000 nM
IC50 (MM.1S; Table 22, MM.1S, given as number, read-out: IC50 inhibiting proliferation of tumor cells, MM.1S): > 10000 nM
IC50 (CCRF-CEM; Table 22, given as number, read-out: IC50 inhibiting proliferation of tumor cells, CCRF-CEM): > 10000 nM
IC50 (Kasumi-1; Table 22, given as number): > 10000 nM
IC50 (T47D; Table 22, given as number, read-out: IC50 inhibiting proliferation of tumor cells, T47D): > 10000 nM
IC50 (Jurkat; Table 22, given as number): > 10000 nM
SMILES: O=C(Nc1cnn2ccc(N3CCC[C@@H]3c3cc(F)ccc3F)nc12)N1CC[C@H](O)C1 [larotrectinib]
